The values below are quoted from earlier work in PMC3575012 (Scientific Reports, 2013).

The subject of series [1] is plaque deposited Aβ.
Series [2] has as its system amyloid precursor protein. To be noted: stated as known, explained by buried free N-terminus of Aβ; ref not given.
The subject of series [3] is Alzheimer's disease. The conditions noted are these: cohort of patients suffering “mild” AD; ref not given.

Turning to Bapineuzumab, in series [1], the binding preference result is on record as “Preferential binding”. For the same substance, the “cross reactivity with the amyloid precursor protein” value in series [2] was “lack of cross reactivity”. Turning to Solanezumab, the cognitive improvement entry in series [3] is “small but significant cognitive improvement”.
